Experimental findings from ChEMBL document CHEMBL5653631, “A Potent and Selective ULK1 Inhibitor Suppresses Autophagy and Sensitizes Cancer Cells to Nutrient Stress” (iScience, 2018) are described below.

For experiment [1], the target named is Death-associated protein kinase 2 (Homo sapiens) (UniProt Q9UIK4). The experiment is described as follows: Inhibition of human recombinant DAPK2 at 500 nM related to control ULK1.
In experiment [2] the target is T1, Serine/threonine-protein kinase PLK4 (Homo sapiens) (UniProt O00444).
T1 sequence (whole entry): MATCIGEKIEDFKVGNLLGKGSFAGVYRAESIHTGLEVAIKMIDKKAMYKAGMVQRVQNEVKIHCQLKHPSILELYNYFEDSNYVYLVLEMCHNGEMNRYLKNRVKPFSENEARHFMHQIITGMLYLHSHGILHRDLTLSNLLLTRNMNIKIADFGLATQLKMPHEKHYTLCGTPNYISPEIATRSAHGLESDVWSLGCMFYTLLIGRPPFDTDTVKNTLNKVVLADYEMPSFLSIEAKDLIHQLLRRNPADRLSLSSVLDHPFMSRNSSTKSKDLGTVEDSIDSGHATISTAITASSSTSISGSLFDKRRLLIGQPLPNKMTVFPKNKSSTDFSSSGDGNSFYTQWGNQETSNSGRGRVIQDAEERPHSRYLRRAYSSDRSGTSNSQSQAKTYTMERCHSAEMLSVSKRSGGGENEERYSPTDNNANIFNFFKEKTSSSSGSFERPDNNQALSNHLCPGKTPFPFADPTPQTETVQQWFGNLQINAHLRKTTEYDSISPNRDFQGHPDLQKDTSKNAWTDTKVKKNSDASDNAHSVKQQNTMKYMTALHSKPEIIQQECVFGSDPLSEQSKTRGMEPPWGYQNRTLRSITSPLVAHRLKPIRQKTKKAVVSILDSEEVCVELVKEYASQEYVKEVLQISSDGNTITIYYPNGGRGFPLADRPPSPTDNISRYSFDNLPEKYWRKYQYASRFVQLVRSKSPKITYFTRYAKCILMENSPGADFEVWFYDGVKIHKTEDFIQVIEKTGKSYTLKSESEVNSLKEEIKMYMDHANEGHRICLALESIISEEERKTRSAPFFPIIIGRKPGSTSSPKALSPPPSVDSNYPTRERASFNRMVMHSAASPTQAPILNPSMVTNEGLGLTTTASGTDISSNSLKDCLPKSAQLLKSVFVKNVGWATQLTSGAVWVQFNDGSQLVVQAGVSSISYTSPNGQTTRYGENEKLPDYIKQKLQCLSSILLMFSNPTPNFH
In words: Inhibition of human recombinant PLK4 at 15 nM in presence of ATP by radiometric assay relative to control.

Experiment [3] deals with Serine/threonine-protein kinase WNK3 (Homo sapiens) (UniProt Q9BYP7). In words: Inhibition of human recombinant Wnk3 at 15 nM related to control ULK1.
Sequence of Serine/threonine-protein kinase WNK3 (Homo sapiens) (Q9BYP7 whole entry): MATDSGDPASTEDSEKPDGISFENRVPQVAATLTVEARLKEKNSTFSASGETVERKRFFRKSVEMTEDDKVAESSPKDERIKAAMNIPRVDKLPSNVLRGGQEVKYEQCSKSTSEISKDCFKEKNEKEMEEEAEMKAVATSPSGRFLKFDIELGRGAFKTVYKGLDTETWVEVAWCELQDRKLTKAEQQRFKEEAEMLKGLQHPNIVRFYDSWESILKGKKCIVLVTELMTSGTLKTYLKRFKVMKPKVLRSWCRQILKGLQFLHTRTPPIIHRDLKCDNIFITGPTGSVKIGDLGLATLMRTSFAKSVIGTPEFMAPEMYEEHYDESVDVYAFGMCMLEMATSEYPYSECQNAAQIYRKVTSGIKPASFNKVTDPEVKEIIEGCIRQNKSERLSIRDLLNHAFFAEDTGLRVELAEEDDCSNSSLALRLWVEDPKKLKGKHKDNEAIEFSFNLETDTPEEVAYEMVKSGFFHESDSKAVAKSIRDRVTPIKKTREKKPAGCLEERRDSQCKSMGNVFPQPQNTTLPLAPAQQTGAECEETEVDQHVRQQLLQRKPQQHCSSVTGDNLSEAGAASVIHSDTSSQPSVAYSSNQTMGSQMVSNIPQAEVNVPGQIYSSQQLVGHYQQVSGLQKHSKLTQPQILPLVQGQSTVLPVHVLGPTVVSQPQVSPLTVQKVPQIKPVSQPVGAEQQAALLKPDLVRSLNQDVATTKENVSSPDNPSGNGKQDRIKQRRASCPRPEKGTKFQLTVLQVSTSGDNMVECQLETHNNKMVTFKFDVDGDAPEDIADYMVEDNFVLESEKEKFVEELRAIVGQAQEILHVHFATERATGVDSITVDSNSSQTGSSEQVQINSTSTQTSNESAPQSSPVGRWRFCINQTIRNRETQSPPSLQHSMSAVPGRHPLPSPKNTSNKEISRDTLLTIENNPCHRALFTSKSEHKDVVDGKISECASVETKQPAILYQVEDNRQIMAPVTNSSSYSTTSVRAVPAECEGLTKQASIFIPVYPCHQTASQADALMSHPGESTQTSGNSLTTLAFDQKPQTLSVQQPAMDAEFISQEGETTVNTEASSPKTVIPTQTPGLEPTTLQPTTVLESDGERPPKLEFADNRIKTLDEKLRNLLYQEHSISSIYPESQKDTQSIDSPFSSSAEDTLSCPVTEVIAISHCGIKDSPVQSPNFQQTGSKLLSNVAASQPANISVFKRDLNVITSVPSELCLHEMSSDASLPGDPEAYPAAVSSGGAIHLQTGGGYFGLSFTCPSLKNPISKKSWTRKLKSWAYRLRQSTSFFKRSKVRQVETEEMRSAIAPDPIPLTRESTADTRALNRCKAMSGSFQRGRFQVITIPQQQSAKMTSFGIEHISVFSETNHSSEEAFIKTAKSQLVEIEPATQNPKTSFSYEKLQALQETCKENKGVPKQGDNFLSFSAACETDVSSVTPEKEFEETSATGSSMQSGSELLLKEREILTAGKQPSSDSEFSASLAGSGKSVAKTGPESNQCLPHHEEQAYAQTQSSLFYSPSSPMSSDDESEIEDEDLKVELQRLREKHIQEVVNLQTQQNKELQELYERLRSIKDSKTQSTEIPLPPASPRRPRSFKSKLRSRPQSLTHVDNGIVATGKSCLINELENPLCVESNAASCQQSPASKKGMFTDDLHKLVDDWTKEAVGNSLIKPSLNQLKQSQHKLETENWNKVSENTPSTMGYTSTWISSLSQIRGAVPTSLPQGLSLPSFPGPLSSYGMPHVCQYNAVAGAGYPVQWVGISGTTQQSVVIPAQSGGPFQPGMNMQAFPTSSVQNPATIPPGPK
For experiment [4], the target named is T2, Serine/threonine-protein kinase DCLK2 (Homo sapiens) (UniProt Q8N568).
T2 sequence (whole entry): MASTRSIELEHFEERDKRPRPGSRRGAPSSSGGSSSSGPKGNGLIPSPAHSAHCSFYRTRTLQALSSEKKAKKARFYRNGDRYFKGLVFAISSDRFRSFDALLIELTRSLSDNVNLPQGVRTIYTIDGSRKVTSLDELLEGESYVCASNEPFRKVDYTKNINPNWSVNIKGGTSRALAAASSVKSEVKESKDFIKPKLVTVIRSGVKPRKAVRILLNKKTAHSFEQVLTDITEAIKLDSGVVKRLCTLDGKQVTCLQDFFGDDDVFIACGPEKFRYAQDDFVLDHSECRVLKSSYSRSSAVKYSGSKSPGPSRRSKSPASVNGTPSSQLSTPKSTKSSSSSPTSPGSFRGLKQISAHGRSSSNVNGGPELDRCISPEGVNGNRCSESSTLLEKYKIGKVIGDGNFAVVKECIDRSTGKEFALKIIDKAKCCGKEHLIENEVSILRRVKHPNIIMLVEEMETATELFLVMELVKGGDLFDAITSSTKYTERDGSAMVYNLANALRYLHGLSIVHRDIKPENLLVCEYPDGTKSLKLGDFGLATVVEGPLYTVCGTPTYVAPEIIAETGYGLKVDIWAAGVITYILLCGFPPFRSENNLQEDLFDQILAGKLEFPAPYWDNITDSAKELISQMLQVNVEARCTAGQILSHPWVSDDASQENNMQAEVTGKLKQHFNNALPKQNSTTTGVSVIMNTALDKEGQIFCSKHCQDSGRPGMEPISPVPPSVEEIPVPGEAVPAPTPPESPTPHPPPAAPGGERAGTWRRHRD
The experiment is described as follows: Inhibition of human recombinant DCAMKL2 at 15 nM related to control ULK1.

Experiment [5] addresses T3, Discoidin domain-containing receptor 2 (Homo sapiens) (UniProt Q16832).
T3 sequence (whole entry): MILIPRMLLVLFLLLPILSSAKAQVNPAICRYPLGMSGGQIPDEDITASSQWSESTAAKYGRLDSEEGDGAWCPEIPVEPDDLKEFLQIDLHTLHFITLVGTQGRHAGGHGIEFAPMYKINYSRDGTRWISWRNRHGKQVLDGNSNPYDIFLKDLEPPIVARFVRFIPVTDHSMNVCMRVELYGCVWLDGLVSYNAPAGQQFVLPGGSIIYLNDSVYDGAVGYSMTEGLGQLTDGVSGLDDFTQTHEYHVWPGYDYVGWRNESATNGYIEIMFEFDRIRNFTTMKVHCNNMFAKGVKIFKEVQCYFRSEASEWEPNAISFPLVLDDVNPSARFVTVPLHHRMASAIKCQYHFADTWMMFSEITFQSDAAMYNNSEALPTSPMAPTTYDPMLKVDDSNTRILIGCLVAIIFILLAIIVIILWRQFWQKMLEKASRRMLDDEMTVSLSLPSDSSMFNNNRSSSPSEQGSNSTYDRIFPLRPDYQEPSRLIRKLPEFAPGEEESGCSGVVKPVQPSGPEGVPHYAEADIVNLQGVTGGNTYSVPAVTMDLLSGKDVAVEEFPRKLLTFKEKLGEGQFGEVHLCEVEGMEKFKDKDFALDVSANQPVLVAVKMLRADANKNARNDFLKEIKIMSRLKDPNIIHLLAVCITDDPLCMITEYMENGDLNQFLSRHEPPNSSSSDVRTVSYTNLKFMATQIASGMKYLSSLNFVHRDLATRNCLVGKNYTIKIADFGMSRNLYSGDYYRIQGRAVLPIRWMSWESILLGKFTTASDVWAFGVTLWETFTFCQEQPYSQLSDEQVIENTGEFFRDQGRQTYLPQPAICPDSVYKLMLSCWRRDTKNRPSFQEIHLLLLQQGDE
The experiment is described as follows: Inhibition of human recombinant DDR2 at 15 nM in presence of ATP by radiometric assay relative to control.

One may read the inhibition as the change of the read-out against control, counted positive when it falls.

Sequence of Death-associated protein kinase 2 (Homo sapiens) (Q9UIK4 whole entry, looked up): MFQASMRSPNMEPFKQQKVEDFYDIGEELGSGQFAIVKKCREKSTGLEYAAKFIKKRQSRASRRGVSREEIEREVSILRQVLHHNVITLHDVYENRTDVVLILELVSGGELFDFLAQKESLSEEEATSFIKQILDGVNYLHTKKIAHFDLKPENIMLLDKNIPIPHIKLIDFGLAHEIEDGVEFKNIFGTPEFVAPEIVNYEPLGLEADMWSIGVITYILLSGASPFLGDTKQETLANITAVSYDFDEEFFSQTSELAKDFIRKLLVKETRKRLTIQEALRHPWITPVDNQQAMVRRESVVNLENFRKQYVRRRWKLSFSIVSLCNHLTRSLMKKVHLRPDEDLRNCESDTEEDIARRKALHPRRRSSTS

`CNC(=O)c1ccccc1Oc1nc(Nc2cc(OC)c(OC)c(OC)c2)ncc1Br`: the fold change (FC) in experiment [1] was 0.
Turning to `CC(C)[C@H](NC(=O)c1cc(-c2cnn3cc(-c4ccc(OCCN5CCCCC5)cc4)cnc23)cs1)C(F)(F)F`, the inhibition in experiment [2] is 31%; in experiment [5], 0%. The fold change (FC) in experiment [3] is 0; in experiment [4], 0.14.
